Results published in patent US10745399B2 (priority 2015, dated 2020).

Each compound was assayed on CHK2 phosphorylation (phospho-Thr68) in HCT116 cells (assay: Cellular pCHK2 assay, bleomycin-induced phosphorylation of CHK2 (phospho-Thr68), immunofluorescence high content). Conditions: Homo sapiens, HCT-116; HCT116 cells, 10 μM bleomycin, 4 h; read-out: IC50 (pCHK2).
Type: cell-based
Text: For the identification of substances which inhibit the phosphorylation of the protein kinase CHK2 at the amino acid threonine 68, an immunofluorescence-based “high content” analysis assay was used in HCT116 cells.
In vitro cell-based immunofluorescence assay for the identification of inhibitors of bleomycin-induced phosphorylation of CHK2 (phospho-Thr68) in the human colon carcinoma cell line HCT116:
HCT116 cells are sown out in a defined cell density in 384-well plates in culture medium (DMEM high glucose, 2 mM GlutaMax, 1 mM Na pyruvate, 10% FCS) and incubated overnight at 37° C. and 10% of CO2. On the following day, the test substances are added in a defined concentration range (1 nM to 30 μM) in combination with 10 μM bleomycin, where the concentration of the solvent DMSO is kept constant at 0.5%. After incubation for four hours at 37° C. and 10% of CO2, the cells are fixed (5 min, 4% formaldehyde in PBS), permeabilised (10 min, 0.2% Triton X-100 in PBS) and, after blocking of nonspecific binding sites (10% goat serum, 1% BSA in PBS), incubated overnight at 4° C. with a specific anti-pCHK2 antibody (cell signalling #2661). pCHK2 (Thr68) is determined using an Alexa488-labelled secondary anti-rabbit IgG antibody. Parallel staining of DNA with propidium iodide enables determination of the cell count. The pCHK2 signal is detected using a high-content imager (Molecular Devices IMX Ultra) and automatic image analysis using the MetaXpress software belonging to the instrument. The number of cell nuclei which have a pCHK2 signal above a defined background is determined.

Q: Which IC50 does the source give for COc1cc2ncc3c(c2cc1-c1cnn(C)n1)n(-c1c(C)cncc1F)c(=O)n3C [compound 103, 1-(3-Fluoro-5-methylpyridin-4-yl)-7-methoxy-3-methyl-8-(2-methyl-2H-1,2,3-triazol-4-yl)-1,3-dihydroimidazo-[4,5-c]quinolin-2-one] here?
A: The IC50 was 200 to 1000 nM.

Q: How did the IC50 turn out when CCn1cc(-c2cc3c(cc2OC)ncc2c3n(-c3c(F)cncc3OC)c(=O)n2C)c(C)n1 [compound 142, 8-(1-Ethyl-3-methyl-1H-pyrazol-4-yl)-1-(3-fluoro-5-methoxypyridin-4-yl)-7-methoxy-3-methyl-1,3-dihydroimidazo[4,5-c] quinolin-2-one] was run?
A: Its IC50 is 200 to 1000 nM.

Q: Which IC50 does the source give for COc1cc2ncc3c(c2cc1-c1cnn(C(F)F)c1)n(-c1c(F)cncc1OC)c(=O)n3C [compound 143, 8-(1-Difluoromethyl-1H-pyrazol-4-yl)-1-(3-fluoro-5-methoxypyridin-4-yl)-7-methoxy-3-methyl-1,3-dihydroimidazo[4,5-c] quinolin-2-one] here?
A: The IC50 was 200 to 1000 nM.

Each compound was assayed against mTOR (human) (Homo sapiens (Human), UniProt P42345) (assay: mTOR (human) radiometric kinase assay). Conditions: IC50 (ATM) at least 2000 times higher compared with IC50 (mTOR).
Type: biochemical
Description: mTOR (human) was incubated with 50 mM HEPES pH 7.5, 1 mM EGTA, 0.01% Tween 20, 2 mg/ml of the substrate, 3 mM MnCl2 and [γ-^33P-ATP] (specific activity approximately 500 cpm/pmol, concentration as necessary). The reaction was initiated by addition of MgATP solution. After incubation at room temperature for 40 minutes, the reaction was stopped by addition of 3% phosphoric acid. 10 μl of the reaction solution were then transferred dropwise onto a P30 filtermat and washed three times for 5 min in 75 mM phosphoric acid and once in methanol, dried and evaluated by means of liquid scintillation counting.

Q: With CNC(=O)c1cnc(-n2c(=O)n(C)c3cnc4cc(OC)c(-c5cnn(C)c5)cc4c32)c(F)c1 [compound 138, 5-Fluoro-6-[7-methoxy-3-methyl-8-(1-methyl-1H-pyrazol-4-yl)-2-oxo-2,3-dihydroimidazo[4,5-c]-quinolin-1-yl]-N-methyl-nicotinamid] as the compound, how does the “ratio IC50 (ATM):IC50(mTOR), selectivity with respect to mTOR” value (“ratio IC50 (ATM):IC50(mTOR), selectivity” below) read?
A: The value was “at least 2000 times”.

Q: COc1cc2ncc3c(c2cc1-c1ccc2nc(C)[nH]c2c1)n(-c1c(F)cncc1OC)c(=O)n3C [compound 136, 1-(3-Fluoro-5-methoxy-pyridin-4-yl)-7-methoxy-3-methyl-8-(2-methyl-3H-benzoimidazol-5-yl)-1,3-dihydroimidazo[4,5-c]-quinolin-2-one] was tested. Which “ratio IC50 (ATM):IC50(mTOR), selectivity” value did it give?
A: The value was “at least 2000 times”.

Q: How did the “ratio IC50 (ATM):IC50(mTOR), selectivity” value turn out when CCc1cnccc1-n1c(=O)n(C)c2cnc3cc(OC)c(-c4cnn(CC)c4)cc3c21 [compound 157, 8-(1-Ethyl-1H-pyrazol-4-yl)-1-(3-ethylpyridin-4-yl)-7-methoxy-3-methyl-1,3-dihydroimidazo[4,5-c] quinolin-2-one] was run?
A: Its value is “at least 2000 times”.

Q: For COc1cc2ncc3c(c2cc1-c1cn(C)nc1C)n(-c1c(F)cncc1OC(F)F)c(=O)n3C [compound 147, 1-(3-Difluoromethoxy-5-fluoropyridin-4-yl)-8-(1,3-dimethyl-1H-pyrazol-4-yl)-7-methoxy-3-methyl-1,3-dihydroimidazo[4,5-c]-quinolin-2-one], which “ratio IC50 (ATM):IC50(mTOR), selectivity” value is on record?
A: Its value is “at least 2000 times”.

Q: Which “ratio IC50 (ATM):IC50(mTOR), selectivity” value does the source give for COc1ccc(-c2cc3c(cc2OC)ncc2c3n(-c3cn(C)nc3F)c(=O)n2C)cn1 [compound 159, 1-(3-Fluoro-1-methyl-1H-pyrazol-4-yl)-7-methoxy-8-(6-methoxypyridin-3-yl)-3-methyl-1,3-dihydroimidazo-[4,5-c]quinolin-2-one] here?
A: Its value is “at least 2000 times”.

Q: For COc1cc2ncc3c(c2cc1-c1cc[nH]n1)n(-c1cn(C)nc1C)c(=O)n3C [compound 121, 1-(1,3-Dimethyl-1H-pyrazol-4-yl)-7-methoxy-3-methyl-8-(1H-pyrazol-3-yl)-1,3-dihydroimidazo[4,5-c]-quinolin-2-one], which “ratio IC50 (ATM):IC50(mTOR), selectivity” value is on record?
A: Its value is “at least 2000 times”.

Q: How did the “ratio IC50 (ATM):IC50(mTOR), selectivity” value turn out when COc1cc2ncc3c(c2cc1-c1cnn(C)c1)n(-c1ncc(OC(F)F)cc1F)c(=O)n3C [compound 114, 1-(5-Difluoromethoxy-3-fluoropyridin-2-yl)-7-methoxy-3-methyl-8-(1-methyl-1H-pyrazol-4-yl)-1,3-dihydroimidazo[4,5-c]-quinolin-2-one] was run?
A: The value was “at least 2000 times”.

Q: For CCc1cncc(F)c1-n1c(=O)n(C)c2cnc3cc(OC)c(-c4cn(C)nn4)cc3c21 [compound 126, 1-(3-Ethyl-5-fluoropyridin-4-yl)-7-methoxy-3-methyl-8-(1-methyl-1H-1,2,3-triazol-4-yl)-1,3-dihydroimidazo-[4,5-c]quinolin-2-one], which “ratio IC50 (ATM):IC50(mTOR), selectivity” value is on record?
A: The value was “at least 2000 times”.

Q: COc1cnc(-n2c(=O)n(C)c3cnc4cc(OC)c(-c5c[nH]nc5C)cc4c32)c(F)c1 [compound 122, 1-(3-Fluoro-5-methoxy-pyridin-2-yl)-7-methoxy-3-methyl-8-(3-methyl-1H-pyrazol-4-yl)-1,3-dihydro-imidazo[4,5-c]quinolin-2-one] was tested. Which “ratio IC50 (ATM):IC50(mTOR), selectivity” value did it give?
A: The value was “at least 2000 times”.

Q: With COc1cc2ncc3c(c2cc1-c1cnn(C)c1)n(-c1ncc(OCS(C)(=O)=O)cc1F)c(=O)n3C [compound 201, 1-(3-Fluoro-5-methyl-sulfonylmethoxypyridin-2-yl)-7-methoxy-3-methyl-8-(1-methyl-1H-pyrazol-4-yl)-1,3-dihydroimidazo[4,5-c]-quinolin-2-one] as the compound, how does the “ratio IC50 (ATM):IC50(mTOR), selectivity” value read?
A: Its value is “at least 2000 times”.

Q: With CCc1cncc(F)c1-n1c(=O)n(C)c2cnc3cc(OC)c(-c4cn[nH]n4)cc3c21 [compound 125, 1-(3-Ethyl-5-fluoropyridin-4-yl)-7-methoxy-3-methyl-8-(2H-1,2,3-triazol-4-yl)-1,3-dihydroimidazo[4,5-c] quinolin-2-one] as the compound, how does the “ratio IC50 (ATM):IC50(mTOR), selectivity” value read?
A: The value was “at least 2000 times”.

Q: Which “ratio IC50 (ATM):IC50(mTOR), selectivity” value does the source give for COc1cc2ncc3c(c2cc1-c1cnn(C)c1)n(-c1cn(C)nc1F)c(=O)n3C [compound 141, 1-(3-Fluoro-1-methyl-1H-pyrazol-4-yl)-7-methoxy-3-methyl-8-(1-methyl-1H-pyrazol-4-yl)-1,3-dihydro-imidazo[4,5-c]quinolin-2-one] here?
A: Its value is “at least 2000 times”.

Q: COc1cc2ncc3c(c2cc1-c1cnn(C)c1)n(-c1cc2[nH]ccc2cn1)c(=O)n3C [compound 120, 7-Methoxy-3-methyl-8-(1-methyl-1H-pyrazol-4-yl)-1-(1H-pyrrolo[3,2-c]pyridin-6-yl)-1,3-dihydroimidazo-[4,5-c]quinolin-2-one] was tested. Which “ratio IC50 (ATM):IC50(mTOR), selectivity” value did it give?
A: Its value is “at least 2000 times”.

These compounds were tested against human recombinant ATM (Homo sapiens (Human), UniProt Q13315) (assay: ATM kinase assay (IC50 ATM), TR-FRET). Conditions: 10 μM ATP, p53 substrate.
human recombinant ATM, sequence (Q13315 whole entry): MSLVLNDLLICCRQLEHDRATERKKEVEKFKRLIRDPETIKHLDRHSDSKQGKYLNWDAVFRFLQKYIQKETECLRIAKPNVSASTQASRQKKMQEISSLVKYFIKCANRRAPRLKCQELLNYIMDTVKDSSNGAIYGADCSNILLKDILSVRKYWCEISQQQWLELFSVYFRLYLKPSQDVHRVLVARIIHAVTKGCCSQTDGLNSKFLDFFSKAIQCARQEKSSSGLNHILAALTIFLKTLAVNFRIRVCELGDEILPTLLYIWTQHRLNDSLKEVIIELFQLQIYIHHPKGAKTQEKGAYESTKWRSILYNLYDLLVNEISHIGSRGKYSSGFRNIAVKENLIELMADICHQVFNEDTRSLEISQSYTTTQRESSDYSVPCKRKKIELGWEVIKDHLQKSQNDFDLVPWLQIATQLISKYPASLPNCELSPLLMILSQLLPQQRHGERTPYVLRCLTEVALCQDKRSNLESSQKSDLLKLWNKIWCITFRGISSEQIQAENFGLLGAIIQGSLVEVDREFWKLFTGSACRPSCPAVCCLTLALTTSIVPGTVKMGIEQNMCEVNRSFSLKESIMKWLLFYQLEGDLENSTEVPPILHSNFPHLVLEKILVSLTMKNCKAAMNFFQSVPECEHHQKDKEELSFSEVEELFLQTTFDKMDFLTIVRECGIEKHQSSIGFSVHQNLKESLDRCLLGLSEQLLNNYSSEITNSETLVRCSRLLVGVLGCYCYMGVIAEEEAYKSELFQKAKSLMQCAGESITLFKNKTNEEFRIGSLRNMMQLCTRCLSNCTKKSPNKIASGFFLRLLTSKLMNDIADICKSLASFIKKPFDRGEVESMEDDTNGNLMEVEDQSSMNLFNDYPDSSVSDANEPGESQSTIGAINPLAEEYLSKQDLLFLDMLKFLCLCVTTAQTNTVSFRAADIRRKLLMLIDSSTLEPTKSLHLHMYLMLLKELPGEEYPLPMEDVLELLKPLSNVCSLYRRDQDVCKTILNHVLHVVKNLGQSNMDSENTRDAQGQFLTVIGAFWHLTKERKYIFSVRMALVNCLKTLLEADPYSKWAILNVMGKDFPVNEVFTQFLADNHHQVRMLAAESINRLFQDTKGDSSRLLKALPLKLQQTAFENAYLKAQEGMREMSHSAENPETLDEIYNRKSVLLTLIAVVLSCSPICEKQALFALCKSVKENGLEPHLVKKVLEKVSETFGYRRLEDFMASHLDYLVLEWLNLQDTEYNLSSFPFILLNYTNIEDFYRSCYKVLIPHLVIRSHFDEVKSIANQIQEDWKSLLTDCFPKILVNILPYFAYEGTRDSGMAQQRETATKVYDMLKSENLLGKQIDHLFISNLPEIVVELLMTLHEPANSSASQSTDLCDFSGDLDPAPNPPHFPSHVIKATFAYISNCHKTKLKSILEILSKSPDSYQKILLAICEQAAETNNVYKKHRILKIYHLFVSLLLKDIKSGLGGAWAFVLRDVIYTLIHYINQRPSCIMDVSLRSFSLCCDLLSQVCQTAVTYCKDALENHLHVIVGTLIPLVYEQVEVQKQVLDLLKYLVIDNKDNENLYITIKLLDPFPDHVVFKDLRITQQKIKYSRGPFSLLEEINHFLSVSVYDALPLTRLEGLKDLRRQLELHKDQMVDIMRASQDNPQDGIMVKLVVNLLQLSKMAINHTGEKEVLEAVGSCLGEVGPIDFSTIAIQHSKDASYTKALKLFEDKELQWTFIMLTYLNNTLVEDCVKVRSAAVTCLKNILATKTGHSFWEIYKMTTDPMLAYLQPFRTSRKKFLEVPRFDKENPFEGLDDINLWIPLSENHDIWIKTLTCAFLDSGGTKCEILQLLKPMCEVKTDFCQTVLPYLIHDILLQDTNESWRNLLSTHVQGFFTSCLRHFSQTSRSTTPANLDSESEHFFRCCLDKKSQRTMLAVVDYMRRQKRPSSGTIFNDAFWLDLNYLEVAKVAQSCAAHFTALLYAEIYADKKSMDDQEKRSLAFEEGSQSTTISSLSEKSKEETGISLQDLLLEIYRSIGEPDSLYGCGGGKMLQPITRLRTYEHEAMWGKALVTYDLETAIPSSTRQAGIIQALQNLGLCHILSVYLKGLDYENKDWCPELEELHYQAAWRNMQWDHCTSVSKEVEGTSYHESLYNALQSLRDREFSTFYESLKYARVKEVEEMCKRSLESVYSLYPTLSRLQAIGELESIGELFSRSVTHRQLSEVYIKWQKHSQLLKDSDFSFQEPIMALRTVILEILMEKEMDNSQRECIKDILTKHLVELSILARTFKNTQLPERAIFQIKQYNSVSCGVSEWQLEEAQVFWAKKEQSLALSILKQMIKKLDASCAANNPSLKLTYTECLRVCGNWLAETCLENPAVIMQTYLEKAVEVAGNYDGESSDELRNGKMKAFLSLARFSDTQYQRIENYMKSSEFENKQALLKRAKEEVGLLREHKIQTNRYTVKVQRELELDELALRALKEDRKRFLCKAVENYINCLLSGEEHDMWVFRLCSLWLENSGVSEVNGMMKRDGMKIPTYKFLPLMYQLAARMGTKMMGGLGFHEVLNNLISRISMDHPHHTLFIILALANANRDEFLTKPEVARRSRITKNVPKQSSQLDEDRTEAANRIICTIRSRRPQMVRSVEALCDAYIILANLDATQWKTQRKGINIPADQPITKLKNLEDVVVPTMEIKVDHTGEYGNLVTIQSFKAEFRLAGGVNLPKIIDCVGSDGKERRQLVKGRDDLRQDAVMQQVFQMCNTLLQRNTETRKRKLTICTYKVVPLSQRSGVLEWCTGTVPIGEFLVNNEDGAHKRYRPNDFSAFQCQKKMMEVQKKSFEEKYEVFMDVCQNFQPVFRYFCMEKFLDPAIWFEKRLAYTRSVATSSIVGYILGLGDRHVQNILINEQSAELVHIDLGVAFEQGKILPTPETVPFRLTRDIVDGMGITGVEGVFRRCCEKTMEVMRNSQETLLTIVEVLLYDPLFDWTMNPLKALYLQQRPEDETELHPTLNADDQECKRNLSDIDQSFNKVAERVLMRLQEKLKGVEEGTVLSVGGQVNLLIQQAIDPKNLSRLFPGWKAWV
Type: biochemical
Description: ATM Kinase Assay—Determination of ATM Inhibition (IC50 ATM):
The IC50 value was determined with the aid of a biochemical ATM kinase assay. The assay consists of two steps: the enzymatic reaction and the detection step. Firstly, ATM (ataxia telangiectasia mutated) protein and the test substance are incubated at different concentrations with addition of substrate protein p53 and ATP. ATM mediates the phosphorylation of p53 at several positions, including at amino acid S15. The amount of phosphorylated p53 is determined with the aid of specific antibodies and the TR-FRET technique. The enzymatic ATM assay is carried out as TR-FRET (HTRF™, Cisbio Bioassays) based 384-well assay. In the first step, purified human recombinant ATM (human ATM, full length, GenBank ID NM_000051, expressed in a mammal cell line) is incubated in assay buffer for 15 minutes with the ATM inhibitor in various concentrations and without test substance as negative or neutral control. The assay buffer comprises 25 mM HEPES pH 8.0, 10 mM Mg(CH3COO)2, 1 mM MnCl2, 0.1% BSA and 0.01% Brij® 35, 5 mM dithiothreitol (DTT). […] In the second step, purified human recombinant cmyc-labelled p53 (human p53, full length, GenBank ID BC003596, expressed in Sf21 insect cells) and ATP are added, and the reaction mixture is incubated at 22° C. for 30-35 minutes. The pharmacologically relevant assay volume is 5 μl. […] The enzymatic reaction is stopped by addition of EDTA. […] After incubation, usually for 2 hours (between 1.5 and 15 h), for signal development, the plates are analysed in a plate reader (EnVision, PerkinElmer) using TRF mode (and with laser excitation). […] The measurement data were processed by means of Genedata Screener software. IC50 determinations are carried out, in particular, by fitting a dose/action curve to the data points by means of nonlinear regression analysis.

Q: With COc1cc2ncc3c(c2cc1-c1cnn(C)n1)n(-c1c(C)cncc1F)c(=O)n3C [compound 103, 1-(3-Fluoro-5-methylpyridin-4-yl)-7-methoxy-3-methyl-8-(2-methyl-2H-1,2,3-triazol-4-yl)-1,3-dihydroimidazo-[4,5-c]quinolin-2-one] as the compound, how does the IC50 read?
A: Its IC50 is under 50 nM.

Q: Which IC50 does the source give for COc1cc2ncc3c(c2cc1-c1cnn(C)c1)n(-c1ncc(OCCO)cc1F)c(=O)n3C [compound 67, 1-[3-Fluoro-5-(2-hydroxy-ethoxy)-2-pyridyl]-7-methoxy-3-methyl-8-(1-methylpyrazol-4-yl)imidazo-[4,5-c]quinolin-2-one] here?
A: Its IC50 is under 1 nM.

Q: COc1cc2ncc3c(c2cc1-c1cnn(C)c1)n(-c1ncc(F)cc1F)c(=O)n3C [Compound Example 1, 1-(3,5-Difluoropyridin-2-yl)-7-methoxy-3-methyl-8-(1-methyl-1H-pyrazol-4-yl)-1,3-dihydroimidazo[4,5-c] quinolin-2-one] was tested. Which IC50 did it give?
A: The IC50 was under 1 nM.
